Results from the supplement of paper PMC10307832.

Assays:
Test in all cases: relative viability (nuclei count vs DMSO), 5 days (fraction); higher = more cells survive
[1] = compound: N#CC[C@H](C1CCCC1)n1cc(-c2ncnc3[nH]ccc23)cn1 [Ruxolitinib]
Method in brief: (§1)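 Viability here means nuclei in treated wells divided by nuclei in vehicle wells, reported as the median across plates. Only plates with control CV below 25% and at least one doubling passed. Lung cancer cell lines in 1536-well plates were exposed to five √10-spaced library-drug doses for 5 days and counted from 4× Hoechst images in MetaXpress.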

[2] = compound: CS(=O)(=O)c1ccc(-c2cnc(N)c(C(=O)Nc3ccccc3)n2)cc1 [VE-821]
Method in brief: as §1

[3] = compound: CS(=O)(=O)c1ccc(C(=O)Nc2ccc(Cl)c(-c3ccccn3)c2)c(Cl)c1 [Vismodegib]
Method in brief: as §1

[4] = compound: CS(=O)(=O)c1ccc(-c2cnc(N)c(C(=O)Nc3ccccc3)n2)cc1 [VE-821] + CC(=O)Nc1cccc(-n2c(=O)n(C3CC3)c(=O)c3c(Nc4ccc(I)cc4F)n(C)c(=O)c(C)c32)c1 [Trametinib] (partner 0.02 µM)
Method in brief: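 Values are medians from duplicate plates. Each reflects relative viability, defined as the nuclei count of treated wells over that of vehicle wells. Lung cancer cell lines in 1536-well plates were pin-tool dosed one day after seeding with one drug alone or with a fixed anchor-drug dose plus five library-drug doses (not always all listed) in √10 steps, then fixed, stained and imaged at 4× after 5 days.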

| Cell Line | relative viability ([1]; 0.08 µM) | relative viability ([1]; 0.253 µM) | relative viability ([1]; 0.8 µM) | relative viability ([1]; 2.53 µM) | relative viability ([1]; 8 µM) | relative viability ([2]; 0.08 µM) | relative viability ([2]; 0.253 µM) | relative viability ([2]; 0.8 µM) | relative viability ([2]; 2.53 µM) | relative viability ([2]; 8 µM) | relative viability ([3]; 0.08 µM) | relative viability ([3]; 0.253 µM) | relative viability ([3]; 0.8 µM) | relative viability ([3]; 2.53 µM) | relative viability ([3]; 8 µM) | relative viability ([4]; first compound 0.08 µM) | relative viability ([4]; first compound 0.253 µM) | relative viability ([4]; first compound 0.8 µM) | relative viability ([4]; first compound 2.53 µM) | relative viability ([4]; first compound 8 µM) |
| --- | --- | --- | --- | --- | --- | --- | --- | --- | --- | --- | --- | --- | --- | --- | --- | --- | --- | --- | --- | --- |
| NCI-H647 | 0.81 | 0.962 | 1.04 | 0.897 | 0.836 | 1.11 | 0.9 | 0.798 | 0.987 | 0.506 | 0.913 | 0.863 | 0.978 | 0.964 | 1.14 | 0.62 | 0.419 | 0.352 | 0.389 | 0.234 |
| NCI-H3122 | 0.986 | 1.03 | 1.01 | 0.868 | 0.915 | 1.02 | 1.01 | 0.982 | 1.01 | 0.933 | 0.962 | 1.01 | 0.904 | 0.973 | 0.92 | 0.219 | 0.216 | 0.235 | 0.228 | 0.265 |
| PC-3 [JPC-3] | 0.818 | 0.941 | 1.02 | 1.03 | 0.908 | 1.03 | 1.07 | 1.07 | 1.06 | 0.971 | 0.977 | 0.999 | 0.986 | 1.02 | 0.986 | 0.727 | 0.744 | 0.701 | 0.826 | 0.763 |
| NCI-H1355 | 1.07 | 0.962 | 0.957 | 0.922 | 0.918 | 1.05 | 0.919 | 0.963 | 1.04 | 0.604 | 0.947 | 0.992 | 0.904 | 0.99 | 0.93 | 0.53 | 0.424 | 0.349 | 0.429 | 0.381 |
| NCI-H1792 | 0.871 | 0.761 | 0.856 | 0.822 | 0.561 | 1.26 | 0.817 | 0.842 | 1.37 | 0.824 | 0.854 | 0.877 | 0.941 | 0.928 | 0.922 | 0.505 | 0.464 | 0.361 | 0.65 | 0.492 |
| NCI-H838 | 0.918 | 0.897 | 0.832 | 0.567 | 0.478 | 1.06 | 0.887 | 0.902 | 1.01 | 0.791 | 0.906 | 0.893 | 0.941 | 0.947 | 0.973 | 0.568 | 0.472 | 0.544 | 0.648 | 0.345 |
